Test results taken from PMC6173502 (2018).

Assays:
Test in all cases: ITC
[1] = system: BCL2 3-6-2 (DNA, G4) CGGGCACGGGAAAAAAGGGACGGGAAC; conditions: K+ 150 mM (KCl); 20 mM Tris, 1 mM EDTA, 30% DMSO, pH 7.2, 25 °C; mode 1 of 3
[2] = system: BCL2 3-5-3 (DNA, G4) CGGGCACGGGAAAAAGGGAACGGGAAC; conditions: K+ 150 mM (KCl); 20 mM Tris, 1 mM EDTA, 30% DMSO, pH 7.2, 25 °C; mode 1 of 3
[3] = system: KRAS 6-4-4 (DNA, G4) GGGCAATATGGGAAAAGGGAAAAGGGAAAA; conditions: K+ 150 mM (KCl); 20 mM Tris, 1 mM EDTA, 30% DMSO, pH 7.2, 25 °C; mode 1 of 3
[4] = system: KRAS 6-4-6 (DNA, G4) GGGCAATATGGGAAAAGGGAAAAAAGGGAA; conditions: K+ 150 mM (KCl); 20 mM Tris, 1 mM EDTA, 30% DMSO, pH 7.2, 25 °C; mode 1 of 3
[5] = system: hTel22 (DNA, G4) AGGGTTAGGGTTAGGGTTAGGG; conditions: 20 mM Tris, 1 mM EDTA, 30% DMSO, pH 7.2, 25 °C, mode 1 of 3

Ka [1]: 41.5 × 10^7
Ka [2]: 17.5 × 10^7
Ka [3]: 25.5 × 10^7
Ka [4]: 3.85 × 10^7
Ka ([5]; K+ 150 mM (KCl)): 13.7 × 10^7
Ka ([5]; Na+ 150 mM (NaCl)): 18.2 × 10^7
SMILES: N=C(N)c1ccc(N=NNc2ccc(C(=N)N)cc2)cc1
